The record followed here is paper PMC9604311 (International Journal of Molecular Sciences, 2022).

For series [1], the target named is T1, human KOP (Homo sapiens, UniProt P41145).
T1 construct: expressed in transfected cells; host or cells: CHO cells
The series is described as follows: cell-based. The note with it: for KOP pEC50 (CL95%): agonist potency, calcium mobilization; for KOP pEC50 (CL95%) / KOP α ± SEM: inactive = inactive up to 1 μM; for KOP α ± SEM: efficacy (intrinsic activity) relative to dynorphin A. A general note: A change in cytosolic calcium serves as a functional read-out for many receptors and channels.

The target in series [2] is T2, human MOP (Homo sapiens, UniProt P35372). The note with it: agonist potency, calcium mobilization; inactive = inactive up to 1 μM.
For series [3], the target named is T3, human DOP (Homo sapiens, UniProt P41143). It is filed as cell-based. Set-up: expressed in transfected cells; host or cells: CHO cells. The note with it: inactive = inactive up to 1 μM; for DOP pEC50 (CL95%): agonist potency, calcium mobilization; for DOP α ± SEM: efficacy (intrinsic activity) relative to DPDPE.
Series [4] deals with human NOP (Homo sapiens, UniProt P41146). As to the kind of experiment: calcium mobilization assay, CHO cells co-expressing NOP and Gαqi5. The note with it: for NOP pEC50 (CL95%): agonist potency, calcium mobilization, inactive = inactive up to 1 μM.
Series [5] concerns mice. As to the kind of experiment: mouse hot-plate test (antinociception). The note with it: i.t. administration, value with range in parentheses. (In hot-plate and tail-flick tests a longer latency is read as antinociception.)
Series [6] has as its system mice. As to the kind of experiment: rotarod test (motor coordination). Type of series: in vivo. Particulars: 6.2 nmol/animal, i.t.; compared to control group. As for the experimental part: Rotarod apparatus (Ugo Basile, No. 8466, Italy) was used to estimate the probable influence of peptide on motor coordination of animals. In the training period, 3 trials were conducted for 3 consecutive days. Animals that were able to stay on the rotating (16 revolutions/min) bar more than 180 s were chosen for the tests. In the experimental session, each animal was tested on the rotarod, and duration to fall from the rotating bar was noted.
A general note: Falling from the rotarod earlier than controls is read as motor impairment.

In series [7] the target is T4, human nociceptin/orphanin FQ peptide receptor (NOP) (Homo sapiens, UniProt P41146).
T4 construct: expressed in transfected cells; host or cells: CHO cells (CHOhNOP; gift from GSK), membrane homogenate
The series is described as follows: [leucyl-3H]nociceptin displacement binding assay. As for the experimental part: Radioactivity was determined after an 8 h extraction period.
(§1) The IC50 values were determined from the logarithmic concentration–displacement curves, and the values of the inhibitory constants (Ki) were calculated according to the equation of Cheng and Prusoff.

In series [8] the target is T3, human DOP. As to the kind of experiment: [3H]deltorphin-2 displacement binding assay. Details: purchased PerkinElmer; host or cells: CHO cells. Particulars: for pKi DOP: displacement of [3H]deltorphin-2 from CHOhDOP cell homogenates, mean ± SEM, n = 5. As for the experimental part:
(§2) Membranes were incubated in 0.5 mL of 50 mM Tris/HCl (pH = 7.4), 0.5% bovine serum albumin (BSA), with a number of peptidase inhibitors (bacitracin, bestatin, captopril) and various concentrations of radioligands for 2 h at 25 °C. Non-specific binding was assessed in the presence of […] naloxone. Assays were incubated at room temperature for […] and reactions were terminated via filtration through Whatman GF/B filters, soaked in 0.5% polyethyleneimine (PEI), using Millipore Sampling Manifold (Billerica, MA, USA). Radioactivity was determined after an 8 h extraction period.
as §1

Series [9] deals with T2, human MOP. The series is described as follows: [3H]DAMGO displacement binding assay. Details: purchased PerkinElmer; host or cells: CHO cells. As to the method: as §2, §1
In series [10] the target is T2, human MOP. The series is described as follows: cell-based.
The target of series [11] is T5, KW-496 (lactam 2-5).
T5 chain: Y[dK]FFDGGGRYYRIK-NH2
The series is described as follows: radioligand competition ([3H]deltorphin-2).

For series [12], the target named is T6, RP-170 (lactam 2-5).
T6 chain: Y[dK]FFD-NH2
The series is described as follows: radioligand competition ([3H]deltorphin-2).

In series [13] the target is T7, KW-495 (lactam 2-5).
T7 chain: Y[dK]FFDRYYRIK-NH2
The series is described as follows: radioligand competition ([3H]deltorphin-2).

Entries after “also recorded” stand apart in the source; their conditions may differ. Positions of bridges follow the written chain, without caps; N, C: chain ends. Non-standard residues stand in square brackets, D forms with d. Residues, ends and D or L forms follow the SMILES beside them. No end group written: not given here. Where only a bound is given, the exact number is not on record here.

T2 sequence (P35372 whole entry): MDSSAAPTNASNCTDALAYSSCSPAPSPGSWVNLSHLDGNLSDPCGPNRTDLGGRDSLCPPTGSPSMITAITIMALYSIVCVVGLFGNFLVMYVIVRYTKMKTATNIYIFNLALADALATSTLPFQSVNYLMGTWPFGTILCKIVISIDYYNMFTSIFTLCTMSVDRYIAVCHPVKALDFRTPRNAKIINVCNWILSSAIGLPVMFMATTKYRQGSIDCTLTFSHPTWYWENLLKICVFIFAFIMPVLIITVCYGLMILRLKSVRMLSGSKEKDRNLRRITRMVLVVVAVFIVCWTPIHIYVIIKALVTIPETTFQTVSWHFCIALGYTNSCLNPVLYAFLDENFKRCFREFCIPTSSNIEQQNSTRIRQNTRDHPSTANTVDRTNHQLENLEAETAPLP
T1 sequence (P41145 whole entry): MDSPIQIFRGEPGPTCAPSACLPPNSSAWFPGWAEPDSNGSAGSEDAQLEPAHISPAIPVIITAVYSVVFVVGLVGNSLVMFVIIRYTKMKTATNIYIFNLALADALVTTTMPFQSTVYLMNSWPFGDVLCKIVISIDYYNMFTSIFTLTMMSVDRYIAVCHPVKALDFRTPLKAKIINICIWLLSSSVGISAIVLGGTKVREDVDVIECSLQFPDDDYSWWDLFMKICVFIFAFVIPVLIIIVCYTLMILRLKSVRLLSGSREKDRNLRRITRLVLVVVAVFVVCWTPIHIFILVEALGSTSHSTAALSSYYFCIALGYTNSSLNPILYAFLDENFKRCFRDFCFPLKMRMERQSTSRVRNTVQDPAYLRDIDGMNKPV
Chain of human NOP (P41146 whole entry): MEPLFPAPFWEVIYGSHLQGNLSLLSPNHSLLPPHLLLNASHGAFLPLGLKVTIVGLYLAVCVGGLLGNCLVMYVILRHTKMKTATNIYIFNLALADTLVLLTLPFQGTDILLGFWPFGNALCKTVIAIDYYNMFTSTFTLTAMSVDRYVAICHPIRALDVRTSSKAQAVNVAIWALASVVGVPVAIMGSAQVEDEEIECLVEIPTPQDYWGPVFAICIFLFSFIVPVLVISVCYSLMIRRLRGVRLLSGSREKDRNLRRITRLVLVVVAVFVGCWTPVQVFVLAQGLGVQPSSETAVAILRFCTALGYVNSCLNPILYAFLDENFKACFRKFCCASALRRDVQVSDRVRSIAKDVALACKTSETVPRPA
T4 sequence (P41146 whole entry): as above

In the case of `CC[C@H](C)[C@H](NC(=O)[C@H](CCCNC(=N)N)NC(=O)[C@H](Cc1ccc(O)cc1)NC(=O)[C@H](Cc1ccc(O)cc1)NC(=O)[C@H](CCCNC(=N)N)NC(C)=O)C(=O)N[C@@H](CCCCN)C(N)=O` [Ac-RYYRIK-NH2, Ac-Arg-Tyr-Tyr-Arg-Ile-Lys-NH2], in series [1], the “KOP pEC50 (CL95%)” value is “inactive” and the “KOP α ± SEM” value was “inactive”. In series [2], the “MOP pEC50 (CL95%)” value was “inactive”. Further, in series [3], the “DOP pEC50 (CL95%)” value is “inactive” and the “DOP α ± SEM” value was “inactive”.

For the molecule `CC1(C)SSC(C)(C)[C@@H](NC(=O)[C@@H](N)Cc2ccc(O)cc2)C(=O)NCC(=O)N[C@@H](Cc2ccccc2)C(=O)N[C@H]1C(=O)O` [DPDPE], in [1], the “KOP pEC50 (CL95%)” value is “inactive” and the “KOP α ± SEM” value was “inactive”. Besides, the “NOP pEC50 (CL95%)” value in series [4] is “inactive”.

The term EC50 denotes the concentration giving half of the maximal effect. What is called Ki is a dissociation constant, usually derived from enzyme kinetics or from competition with a known ligand. Higher therefore signals lower affinity. Regarding `CC[C@H](C)[C@H](NC(=O)[C@H](CCCNC(=N)N)NC(=O)[C@H](Cc1ccc(O)cc1)NC(=O)[C@H](Cc1ccc(O)cc1)NC(=O)[C@H](CCCNC(=N)N)NC(=O)[C@@H]1CC(=O)NCCCC[C@@H](NC(=O)[C@@H](N)Cc2ccc(O)cc2)C(=O)N[C@@H](Cc2ccccc2)C(=O)N[C@@H](Cc2ccccc2)C(=O)N1)C(=O)N[C@@H](CCCCN)C(N)=O` [KW-495, Tyr-c[D-Lys-Phe-Phe-Asp]-Arg-Tyr-Tyr-Arg-Ile-Lys-NH2] (HELM PEPTIDE1{Y.[dK].F.F.D.R.Y.Y.R.I.K.[am]}$PEPTIDE1,PEPTIDE1,2:R3-5:R3$$$V2.0; N-terminus assumed), in series [5], the “ED50 (jumping response)” value is 4.59 (1.17–18.09) nmol. The values for the EC50 in series [1], in series [4] and in [10] were 2.82 nM, 75.9 nM and 8.71 nM, respectively. In addition, the “effect on motor coordination (falling latency)” value in series [6] was “did not cause any significant effect”. In addition, the Ki in series [7] is 2.24 nM; in series [8], greater than 1000 nM; in [9] it was 4.47 nM. Moreover, the “pKi DOP” value in series [8] is “did not bind to DOP”. Further, the “DOP pEC50 (CL95%)” value in series [3] is “inactive”. Besides, the “DOP α ± SEM” value in series [3] is “inactive”.

In the case of `CC[C@H](C)[C@H](NC(=O)[C@H](CCCNC(=N)N)NC(=O)[C@H](Cc1ccc(O)cc1)NC(=O)[C@H](Cc1ccc(O)cc1)NC(=O)[C@H](CCCNC(=N)N)NC(=O)CNC(=O)CNC(=O)CNC(=O)[C@@H]1CC(=O)NCCCC[C@@H](NC(=O)[C@@H](N)Cc2ccc(O)cc2)C(=O)N[C@@H](Cc2ccccc2)C(=O)N[C@@H](Cc2ccccc2)C(=O)N1)C(=O)N[C@@H](CCCCN)C(N)=O` [KW-496] (HELM PEPTIDE1{Y.[dK].F.F.D.G.G.G.R.Y.Y.R.I.K.[am]}$PEPTIDE1,PEPTIDE1,2:R3-5:R3$$$V2.0), the EC50 in [1] was 1.15 nM; in series [10], 4.9 nM. Also, the “KOP α ± SEM” value in [1] is on record as 1.03 ± 0.02. For the same molecule, the values for the Ki in series [7], in series [8] and in series [9] were 44.7 nM, greater than 1000 nM and 4.68 nM, respectively. The “NOP pEC50 (CL95%)” value in [4] was “incomplete concentration–response curve; also recorded: Crc incomplete”. For the same molecule, the “NOP α at 1 μM (Crc incomplete)” value in [4] (effect at 1 μM relative to N/OFQ, concentration-response curve incomplete) is 0.33 ± 0.10. In addition, the “pKi DOP” value in series [8] is “did not bind to DOP”. Moreover, in [3], the “DOP pEC50 (CL95%)” value was “inactive”. Besides, the “DOP α ± SEM” value in series [3] was “inactive”.

As for `CC(C)C[C@H](NC(=O)[C@H](CCCCN)NC(=O)[C@H](CCCNC(=N)N)NC(=O)[C@H](C)NC(=O)[C@H](CO)NC(=O)[C@H](CCCCN)NC(=O)[C@H](CCCNC(=N)N)NC(=O)[C@H](C)NC(=O)CNC(=O)[C@@H](NC(=O)[C@H](Cc1ccccc1)NC(=O)CNC(=O)CNC(=O)[C@@H](N)Cc1ccccc1)[C@@H](C)O)C(=O)N[C@@H](C)C(=O)N[C@@H](CC(N)=O)C(=O)N[C@@H](CCC(N)=O)C(=O)O` [N/OFQ], the “MOP pEC50 (CL95%)” value in series [2] is “inactive”.

Turning to `NC(=O)[C@@H]1CC(=O)NCCCC[C@@H](NC(=O)[C@@H](N)Cc2ccc(O)cc2)C(=O)N[C@@H](Cc2ccccc2)C(=O)N[C@@H](Cc2ccccc2)C(=O)N1` [RP-170, Tyr-c[D-Lys-Phe-Phe-Asp]-NH2, reference compound] (HELM PEPTIDE1{Y.[dK].F.F.D.[am]}$PEPTIDE1,PEPTIDE1,2:R3-5:R3$$$V2.0; N-terminus assumed), the “KOP α ± SEM” value in series [1] worked out at 1.00 ± 0.03. Further, the “NOP pEC50 (CL95%)” value in [4] was “completely inactive”. Also, the Ki in series [8] was 295 nM; in [9], 0.617 nM. Besides, in series [3], the “DOP pEC50 (CL95%)” value is “inactive”. The “DOP α ± SEM” value in [3] is “inactive”.

Consider `CC[C@H](C)[C@H](NC(=O)[C@H](CCCNC(=N)N)NC(=O)[C@H](CCCNC(=N)N)NC(=O)[C@H](CC(C)C)NC(=O)[C@H](Cc1ccccc1)NC(=O)CNC(=O)CNC(=O)[C@@H](N)Cc1ccc(O)cc1)C(=O)N[C@@H](CCCNC(=N)N)C(=O)N1CCC[C@H]1C(=O)N[C@@H](CCCCN)C(=O)N[C@@H](CC(C)C)C(=O)N[C@@H](CCCCN)C(=O)N[C@@H](Cc1c[nH]c2ccccc12)C(=O)N[C@@H](CC(=O)O)C(=O)N[C@@H](CC(N)=O)C(=O)N[C@@H](CCC(N)=O)C(=O)O` [dynorphin A, reference compound], for which the “NOP pEC50 (CL95%)” value in series [4] was “inactive”. In addition, the “DOP α ± SEM” value in [3] worked out at 1.00.

B1: DOP (protein)
chain: MEPAPSAGAELQPPLFANASDAYPSACPSAGANASGPPGARSASSLALAIAITALYSAVCAVGLLGNVLVMFGIVRYTKMKTATNIYIFNLALADALATSTLPFQSAKYLMETWPFGELLCKAVLSIDYYNMFTSIFTLTMMSVDRYIAVCHPVKALDFRTPAKAKLINICIWVLASGVGVPIMVMAVTRPRDGAVVCMLQFPSPSWYWDTVTKICVFLFAFVVPILIITVCYGLMLLRLRSVRLLSGSKEKDRSLRRITRMVLVVVGAFVVCWAPIHIFVIVWTLVDIDRRDPLVVAALHLCIALGYANSSLNPVLYAFLDENFKRCFRQLCRKPCGRPDPSSFSRAREATARERVTACTPSDGPGGGAAA
Turning to B1, the Ki in series [11] was greater than 1000 nM; in series [12], 295 nM; in [13] it was greater than 1000 nM.
